Values quoted from earlier work, collected in US20140079639A1, “METHODS AND COMPOSITIONS FOR IDENTIFYING, PRODUCING AND USING PLANT-DERIVED PRODUCTS FOR MODULATING CELL FUNCTION AND AGING” (LIFESPAN EXTENSION, LLC, priority 2009, published 2014).
Each block holds one compound with its values, some of them ahead of it.

How the values were obtained:
fibroblast cells = conditions: cells treated in culture
[1] = oxidation of lipids due to e.g. UV radiation or free radical damage
[2] = when absorbed into the body

solubility: soluble in water and alcohol
SMILES: O=C(O)/C=C/c1ccc(O)c(O)c1 [Caffeic Acid, (E)-3-(3,4-dihydroxyphenyl)-2-propenoic acid]

SMILES: NCCC(=O)N[C@@H](Cc1cnc[nH]1)C(=O)O [Carnosine]
extension of lifespan of fibroblast cells past the Hayflick limit of non-treated cells (fibroblast cells): up to 10 divisions

SMILES: COC1=C(OC)C(=O)C(CCCCCCCCCCO)=C(C)C1=O [idebenone, 6-(10-hydroxydecyl)-2,3-dimethoxy-5-methyl-1,4-benzoquin-one]
reduction of lipid hydroperoxides among the tested antioxidants [1]: highest reduction

SMILES: COC1=C(OC)C(=O)C(C/C=C(\C)CC/C=C(\C)CC/C=C(\C)CC/C=C(\C)CC/C=C(\C)CC/C=C(\C)CC/C=C(\C)CC/C=C(\C)CC/C=C(\C)CCC=C(C)C)=C(C)C1=O [ubiquinone, Ubiquinone]
conversion to the active antioxidant form ubiquinol [2]: 90%
